Where two headings read alike, the source gives them in different places.
Tested on: adult worms of S. japonicum (Chinese strain)
Assay: microbe, parasite or virus in culture
Settings: for Mortality (%) 72 h: 100 μM, adult worms in vitro; for mortality at 100 µM: Schistosoma japonicum
Method: S. japonicum cercariae (Chinese strain) were acquired from infected Oncomelania hupensis snails (Wuxi Insect Vector Biology Co., Ltd., China) ([28]). ICR mice (6–8 weeks, 22–25 g; Hunan SJA Laboratory Animal Co., Ltd., China) were percutaneously infected via abdominal exposure to 60 ± 5 cercariae. Adult schistosomes were perfused from the hepatic portal system at 35 dpi using a modified Duvall and DeWitt method ([29]). Animals were housed under controlled conditions (22°C ± 1°C, 12 h light/dark cycle) with ad libitum access to feed and water.
Adult S. japonicum worms isolated from ICR mice were maintained in sterile culture medium (2.0 mL) comprising 77% RPMI 1640 (Lanzhou Bailing Biotech Co., Ltd.; pH 7.5, HEPES-buffered), 20% heat-inactivated fetal bovine serum (Lanzhou Minhai Bio-Engineering Co., Ltd.), and 3% penicillin-streptomycin (100×; 10,000 U/mL penicillin, 10,000 μg/mL streptomycin; New Cell & Molecular Biotech Co., Ltd., China). Incubation was performed at 37°C under 5% CO2. Test compounds were dissolved in DMSO as 0.1 M stock solutions; 2.0 μL aliquots were added to worm-containing media (final concentration: 100 μM in 0.1% DMSO). Negative controls received equivalent volumes of vehicle (0.1% DMSO in RPMI 1640). Parasite viability (motor activity, tegumental integrity, survival) was assessed every 12 h for 72 h using an Olympus CKX53 inverted microscope (n ≥ 3 independent replicates).

[1] = 24 h, read-out: Mortality (%) 24 h, 100 μM, 24 h, adult worms in vitro
[2] = 36 h, read-out: Mortality (%) 36 h, 100 μM, 36 h, adult worms in vitro
[3] = 48 h, read-out: Mortality (%) 48 h, 100 μM, 48 h, adult worms in vitro
[4] = 72 h, read-out: Mortality (%) 72 h, 100 μM, 72 h, adult worms in vitro

SMILES	Mortality (%) 72 h (72 h)	mortality at 100 µM [1]	mortality at 100 µM [2]	mortality at 100 µM [3]	mortality at 100 µM [4]
Cc1ccc(N(C)NC(=O)c2ccc(Cl)c(Cl)c2)cc1 [Compound 1]	100%	0%	5%	60%	> 80%
COc1ccc(N(C)NC(=O)c2ccc(Cl)c(Cl)c2)cc1 [Compound 2]		0%	0%	0%	0%
CN(NC(=O)c1ccc(Cl)c(Cl)c1)c1ccc(F)cc1 [Compound 3]	85%	0%	0%	45%	> 80%
CN(NC(=O)c1ccc(Cl)c(Cl)c1)c1ccc(Cl)cc1 [Compound 4]		0%	0%	0%	10%
CN(NC(=O)c1ccc(Cl)c(Cl)c1)c1ccc(C#N)cc1 [Compound 6]		0%	0%	0%	20%
Cc1cccc(N(C)NC(=O)c2ccc(Cl)c(Cl)c2)c1 [Compound 7]		0%	0%	0%	0%
CN(NC(=O)c1ccc(Cl)c(Cl)c1)c1cccc(Cl)c1 [Compound 8]	100%	0%	0%	40%	> 80%
CN(NC(=O)c1ccc(Cl)c(Cl)c1)c1cccc(Br)c1 [Compound 9]	85%	0%	0%	15%	> 80%
CN(NC(=O)c1ccc(Cl)c(Cl)c1)c1ccccc1F [Compound 11]		0%	0%	0%	0%
CN(NC(=O)c1ccc(Cl)c(Cl)c1)c1ccccc1Cl [Compound 12]		0%	0%	0%	0%
CN(NC(=O)c1ccc(Cl)c(Cl)c1)c1ccc(Cl)c(Cl)c1 [Compound 13]	100%	0%	15%	50%	> 80%
CN(NC(=O)c1ccc(Cl)c(Cl)c1)c1ccc(Cl)c(C(F)(F)F)c1 [Compound 14]	95%	15%	25%	55%	> 80%
Cc1ccc(C(=O)NN(C)c2ccc(Cl)c(Cl)c2)cc1 [Compound 15]		0%	20%	35%	65%
COc1ccc(C(=O)NN(C)c2ccc(Cl)c(Cl)c2)cc1 [Compound 16]	100%	0%	0%	65%	> 90%
CN(NC(=O)c1ccc(Cl)cc1)c1ccc(Cl)c(Cl)c1 [Compound 17]		0%	5%	25%	70%
CN(NC(=O)c1ccc(C(F)(F)F)cc1)c1ccc(Cl)c(Cl)c1 [Compound 19]		0%	0%	35%	80%
CN(NC(=O)c1ccc(C#N)cc1)c1ccc(Cl)c(Cl)c1 [Compound 20]	100%	0%	0%	60%	> 90%
CN(NC(=O)c1ccc([N+](=O)[O-])cc1)c1ccc(Cl)c(Cl)c1 [Compound 21]		0%	0%	30%	65%
Cc1cccc(C(=O)NN(C)c2ccc(Cl)c(Cl)c2)c1 [Compound 22]		0%	0%	0%	70%

SMILES	Mortality (%) 72 h (72 h)	mortality at 100 µM [1]	mortality at 100 µM [2]	mortality at 100 µM [3]	mortality at 100 µM [4]
CN(NC(=O)c1cccc(Cl)c1)c1ccc(Cl)c(Cl)c1 [Compound 23]	95%	0%	5%	40%	> 90%
CN(NC(=O)c1ccc(F)c(F)c1)c1ccc(Cl)c(Cl)c1 [Compound 24]	90%	0%	5%	45%	> 90%
CN(NC(=O)c1ccc(F)c(C(F)(F)F)c1)c1ccc(Cl)c(Cl)c1 [Compound 25]		0%	0%	30%	80%
Cc1ccc(N(C)NC(=O)c2ccc(Br)cc2)cc1 [Compound 26]		0%	0%	10%	10%
COc1ccc(N(C)NC(=O)c2ccc(Br)cc2)cc1 [Compound 27]		0%	0%	0%	0%
CN(NC(=O)c1ccc(Br)cc1)c1ccc(F)cc1 [Compound 28]		0%	0%	0%	0%
CN(NC(=O)c1ccc(Br)cc1)c1ccc(Cl)cc1 [Compound 29]		0%	0%	0%	35%
CN(NC(=O)c1ccc(Br)cc1)c1ccc(Br)cc1 [Compound 30]		0%	10%	65%	100%
CN(NC(=O)c1ccc(Br)cc1)c1ccc(C(F)(F)F)cc1 [Compound 31]		0%	10%	55%	75%
CN(NC(=O)c1ccc(Br)cc1)c1ccc(C#N)cc1 [Compound 32]		0%	0%	0%	0%
Cc1cccc(N(C)NC(=O)c2ccc(Br)cc2)c1 [Compound 33]		0%	15%	40%	70%
CN(NC(=O)c1ccc(Br)cc1)c1cccc(Cl)c1 [Compound 34]		0%	0%	0%	90%
CN(NC(=O)c1ccc(Br)cc1)c1cccc(Br)c1 [Compound 35]		0%	0%	30%	60%
CN(NC(=O)c1ccc(Br)cc1)c1cccc(C(F)(F)F)c1 [Compound 36]		0%	0%	10%	80%
Cc1ccccc1N(C)NC(=O)c1ccc(Br)cc1 [Compound 37]		0%	0%	0%	0%
CN(NC(=O)c1ccc(Br)cc1)c1ccccc1F [Compound 38]		0%	0%	10%	10%
CN(NC(=O)c1ccc(Br)cc1)c1ccccc1Cl [Compound 39]		0%	0%	10%	20%
CN(NC(=O)c1ccc(Br)cc1)c1cc(Cl)cc(Cl)c1 [Compound 40]		0%	20%	70%	100%

From PMC12889028, “Discovery and biological evaluation of novel N-aryl-N′-methylbenzodrazides against Schistosoma japonicum in vitro and in vivo” (Microbiology Spectrum, 2025)
